Results as given in ChEMBL document CHEMBL1137386, “Pyrrolidine carboxamides as a novel class of inhibitors of enoyl acyl carrier protein reductase from Mycobacterium tuberculosis” (J Med Chem, 2006).
≈ marks a conversion by molar mass, not a printed value. Calls of active or inactive are those of the source. The rule behind the calls is not given here.

Biological target: T1, Enoyl-[acyl-carrier-protein] reductase [NADH] (Mycobacterium tuberculosis) (UniProt P9WGR1)
T1 sequence (whole entry): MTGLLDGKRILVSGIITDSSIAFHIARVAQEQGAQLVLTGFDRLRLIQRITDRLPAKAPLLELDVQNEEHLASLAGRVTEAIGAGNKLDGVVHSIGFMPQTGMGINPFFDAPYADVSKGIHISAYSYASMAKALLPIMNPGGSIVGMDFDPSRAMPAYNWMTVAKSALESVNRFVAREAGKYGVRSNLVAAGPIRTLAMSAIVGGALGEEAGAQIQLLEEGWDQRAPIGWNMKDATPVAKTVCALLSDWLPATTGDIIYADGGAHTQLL
Conditions: 20 uM

SMILES	Activity
O=C(Nc1nnc(Cc2ccccc2)s1)C1CC(=O)N(C2CCCCC2)C1 (configuration not stated)	inactive
N#Cc1c(NC(=O)C2CC(=O)N(C3CCCCC3)C2)sc2c1CCCC2 (configuration not stated)	inactive
CN1CCN(C(=O)C2CC(=O)N(C3CCCCC3)C2)CC1 (configuration not stated)	inactive
O=C(C1CC(=O)N(C2CCCCC2)C1)N1CCOCC1 (configuration not stated)	inactive
O=C(C1CC(=O)N(C2CCCCC2)C1)N1CCN(c2ccccc2)CC1 (configuration not stated)	inactive
CCc1nnc(NC(=O)C2CC(=O)N(C3CCCCC3)C2)s1 (configuration not stated)	inactive
COCc1nnc(NC(=O)C2CC(=O)N(C3CCCCC3)C2)s1 (configuration not stated)	inactive
O=C(Nc1nnc(CCc2ccccc2)s1)C1CC(=O)N(C2CCCCC2)C1 (configuration not stated)	inactive
O=C(NC1CCCCC1)C1CC(=O)N(C2CCCCC2)C1 (configuration not stated)	inactive
O=C(NC1CCCC1)C1CC(=O)N(C2CCCCC2)C1 (configuration not stated)	inactive
CCC(C)NC(=O)C1CC(=O)N(C2CCCCC2)C1 (configuration not stated)	inactive
Cc1nnc(NC(=O)C2CC(=O)N(C3CCCCC3)C2)s1 (configuration not stated)	inactive

Tested on: Mycobacterium tuberculosis
Test: Antibacterial activity against Mycobacterium tuberculosis H37Rv by alamar blue assay
Format: functional
Conditions: not given

SMILES	MIC [µM]
O=C(Nc1cccc(OCc2ccccc2)c1)C1CC(=O)N(C2CCCCC2)C1 (configuration not stated)	125 (≈ 49.1 µg/mL)
CN(Cc1c2ccccc2cc2ccccc12)C(=O)C1CC(=O)N(C2CCCCCC2)C1 (configuration not stated)	125 (≈ 53.6 µg/mL)
O=C(Nc1cc(Br)cc(C(F)(F)F)c1)C1CC(=O)N(C2CCCCC2)C1 (configuration not stated)	62.5 (≈ 27.1 µg/mL)
CN(Cc1c2ccccc2cc2ccccc12)C(=O)C1CC(=O)N(C2CC3CCC2C3)C1 (configuration not stated)	125 (≈ 53.3 µg/mL)
CN(Cc1c2ccccc2cc2ccccc12)C(=O)C1CC(=O)N(C2CCCCC2)C1 (configuration not stated)	125 (≈ 51.8 µg/mL)
CN(Cc1c2ccccc2cc2ccccc12)C(=O)C1CC(=O)N(C2CCCCCCC2)C1 (configuration not stated)	62.5 (≈ 27.7 µg/mL)

Biological target: T2, Enoyl-[acyl-carrier-protein] reductase [NADH] (Mycobacterium tuberculosis, UniProt P9WGR1)
T2 sequence (P9WGR1 whole entry): T1 sequence (whole entry)
Conditions: not given

SMILES	IC50 [nM]
Cc1ccc(Cl)cc1NC(=O)C1CC(=O)N(C2CCCCC2)C1 (configuration not stated)	970
O=C(Nc1cccc(Cc2ccccc2)c1)C1CC(=O)N(C2CCCCC2)C1 (configuration not stated)	410
O=C(Nc1cccc(-c2ccccc2)c1)C1CC(=O)N(C2CCCCC2)C1 (stereo in doubt; p24)	390
O=C(Nc1cccc(-c2ccccc2)c1)C1CC(=O)N(C2CCCCC2)C1 (stereo in doubt; p24a)	2100
CN(Cc1c2ccccc2cc2ccccc12)C(=O)C1CC(=O)N(C2CCCCCC2)C1 (configuration not stated)	320
O=C(Nc1cc(Cl)cc(Cl)c1)C1CC(=O)N(C2CCCCC2)C1 (stereo in doubt; d11)	390
O=C(Nc1cc(Cl)cc(Cl)c1)C1CC(=O)N(C2CCCCC2)C1 (stereo in doubt; d11a)	8160
O=C(Nc1cc(Cl)cc(Cl)c1)C1CC(=O)N(C2CCCCC2)C1 (stereo in doubt; d11b)	200
O=C(Nc1cc(Br)cc(C(F)(F)F)c1)C1CC(=O)N(C2CCCCC2)C1 (configuration not stated)	850
CN(Cc1c2ccccc2cc2ccccc12)C(=O)C1CC(=O)N(C2CC3CCC2C3)C1 (configuration not stated)	850
O=C(Nc1cccc(Br)c1)C1CC(=O)N(C2CCCCC2)C1 (configuration not stated)	890
CN(Cc1c2ccccc2cc2ccccc12)C(=O)C1CC(=O)N(C2CCCCC2)C1 (configuration not stated)	750
O=C(Nc1cccc(-c2ccccc2)c1)C1CC(=O)N(C2CCCCC2)C1 (stereo in doubt; p24b)	255
O=C(Nc1cccc(Br)c1)C1CC(=O)N(c2ccccc2)C1 (configuration not stated)	13500
O=C(Nc1cccc(-c2ccccc2)c1)C1CC(=O)N(C2CC3CCC2C3)C1 (configuration not stated)	460
O=C(Nc1cc(-c2ccccc2)c(O)c(-c2ccccc2)c1)C1CC(=O)N(C2CCCCCC2)C1 (configuration not stated)	270
CN(Cc1c2ccccc2cc2ccccc12)C(=O)C1CC(=O)N(C2CCCCCCC2)C1 (configuration not stated)	620

Biological target: T1, Enoyl-[acyl-carrier-protein] reductase [NADH] (Mycobacterium tuberculosis)
Conditions: 2.4 uM
Description: Inhibition of Mycobacterium tuberculosis InhA at 2.4 uM

SMILES	inhibition [%]
O=C(Nc1cc(-c2ccccc2)c(O)c(-c2ccccc2)c1)C1CC(=O)N(C2CCCCC2)C1 (stereo in doubt; p64a)	72.7

Biological target: T1, Enoyl-[acyl-carrier-protein] reductase [NADH] (Mycobacterium tuberculosis)
Conditions: not given

SMILES	Activity
CS(=O)(=O)Nc1cccc(NC(=O)C2CC(=O)N(C3CCCCC3)C2)c1 (configuration not stated)	inactive
COc1cccc(NC(=O)C2CC(=O)N(C3CCCCC3)C2)c1 (configuration not stated)	inactive
NC(=O)c1cccc(NC(=O)C2CC(=O)N(C3CCCCC3)C2)c1 (configuration not stated)	inactive
CC(=O)c1cccc(NC(=O)C2CC(=O)N(C3CCCCC3)C2)c1 (configuration not stated)	inactive
O=C(Nc1cccc(O)c1)C1CC(=O)N(C2CCCCC2)C1 (configuration not stated)	inactive

Same assay, conditions: concentration not given here

SMILES	inhibition [%]
O=C(C1CC(=O)N(C2CCCCC2)C1)N1CCc2ccccc21 (configuration not stated)	65
